Results as given in ChEMBL document CHEMBL1201862, “PubChem BioAssay data set” (2004).
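These data come from cells grown in 96-well plates and exposed to compound for 48 hours at five concentrations. GI50 marks 50% less growth.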 Calls of active or inactive are those of the source. No stated cut-off is given here; in the data, active = GI50 up to about 1.1 µM and inactive = higher. Where a SMILES comes first, the peptide text is derived from it. The star is where a group is joined. X33 = O=C(c1ccc(-c2ccc(Cl)cc2Cl)o1)*

Columns and labels:
Assay in all cases: inhibition of tumour cell growth, NCI panel, 48 h
IGROV-1 = tested on: IGROV-1
HOP-18 = tested on: HOP-18
HCT-15 = tested on: HCT-15
OVCAR-5 = tested on: OVCAR-5
LOX IMVI = tested on: LOX IMVI
RXF 393 = tested on: RXF 393
ACHN = tested on: ACHN
UACC-257 = tested on: UACC-257
K562 = tested on: K562
HL-60 = tested on: HL-60
NCI-H522 = tested on: NCI-H522
M14 = tested on: M14
NCI-H460 = tested on: NCI-H460
HT-29 = tested on: HT-29
SK-MEL-28 = tested on: SK-MEL-28
NCI/ADR-RES = tested on: NCI/ADR-RES
Hs-578T = tested on: Hs-578T
MDA-MB-435 = tested on: MDA-MB-435
BT-549 = tested on: BT-549
T47D = tested on: T47D

Structure (SMILES) | GI50 (IGROV-1) | GI50 (HOP-18) | GI50 (HCT-15) | GI50 (OVCAR-5) | GI50 (LOX IMVI) | GI50 (RXF 393) | GI50 (ACHN) | GI50 (UACC-257) | GI50 (K562) | GI50 (HL-60) | GI50 (NCI-H522) | GI50 (M14) | GI50 (NCI-H460) | GI50 (HT-29) | GI50 (SK-MEL-28) | GI50 (NCI/ADR-RES) | GI50 (Hs-578T) | GI50 (MDA-MB-435) | GI50 (BT-549) | GI50 (T47D)
O=C(Cc1ccccc1)NN1C(=O)C(Cl)C1c1ccccc1O (centres undefined) | 25.8 µM (inactive) | 3.82 µM (inactive) | 5.85 µM | 15.4 µM (inactive) | 12.1 µM (inactive) | 36 µM (inactive) | 6.98 µM (inactive) | 11.4 µM (inactive) | 14.4 µM (inactive) | 3.21 µM (inactive) | 3.27 µM (inactive) | 14.1 µM (inactive) | 4.62 µM (inactive) | 8.05 µM (inactive) | 23.5 µM (inactive) | – | – | – | – | –
Oc1c(Cl)c2nccnc2c2ccccc12 | > 100 µM (inactive) | 36.9 µM (inactive) | > 100 µM | > 100 µM (inactive) | – | > 100 µM (inactive) | > 100 µM (inactive) | > 100 µM (inactive) | > 100 µM (inactive) | > 100 µM (inactive) | > 100 µM (inactive) | > 100 µM (inactive) | > 100 µM (inactive) | > 100 µM (inactive) | > 100 µM (inactive) | – | – | – | – | –
N#C[C@]12CC3(CC[C@H]1CC1(C2)OCCO1)OCCO3 | > 100 µM (inactive) | > 100 µM (inactive) | > 100 µM | – | – | > 100 µM (inactive) | > 100 µM (inactive) | > 100 µM (inactive) | > 100 µM (inactive) | > 100 µM (inactive) | > 100 µM (inactive) | > 100 µM (inactive) | > 100 µM (inactive) | – | > 100 µM (inactive) | – | – | – | – | –
CCC1CCC2c3c([nH]c4ccc(C)cc34)C3C(=O)N(N(C)C)C(=O)C3C2C1 (centres undefined) | 5.11 µM (inactive) | – | 5.78 µM | > 86.5 µM (inactive) | 13.7 µM (inactive) | 8.05 µM (inactive) | 91.2 µM (inactive) | 5.64 µM (inactive) | 2.62 µM (inactive) | 3.05 µM (inactive) | 0.748 µM (active) | 14.5 µM (inactive) | 7.45 µM (inactive) | 7.28 µM (inactive) | > 83.4 µM (inactive) | 4.35 µM (inactive) | 4.91 µM (inactive) | 1.37 µM (inactive) | 39.1 µM (inactive) | 7.93 µM (inactive)
Cc1[nH]c2ccccc2c1C(=O)CC1(O)C(=O)Nc2c(Cl)cc(Cl)cc21 (centres undefined) | 53.1 µM (inactive) | 25.6 µM (inactive) | 40.5 µM | 24 µM (inactive) | 27 µM (inactive) | 22.2 µM (inactive) | 21.9 µM (inactive) | 17.2 µM (inactive) | 20.9 µM (inactive) | 14.6 µM (inactive) | 16.9 µM (inactive) | 21.5 µM (inactive) | 48.9 µM (inactive) | 54.3 µM (inactive) | 27 µM (inactive) | – | – | – | – | –
COc1ccc2nc3cc(Cl)ccc3c(SCC(=O)Nc3ccccc3-c3ccccc3NC(=O)CSc3c4ccc(Cl)cc4nc4ccc(OC)cc34)c2c1 | > 100 µM (inactive) | > 100 µM (inactive) | > 100 µM | > 100 µM (inactive) | > 100 µM (inactive) | > 100 µM (inactive) | > 100 µM (inactive) | > 100 µM (inactive) | > 100 µM (inactive) | – | > 100 µM (inactive) | > 100 µM (inactive) | > 100 µM (inactive) | > 100 µM (inactive) | > 100 µM (inactive) | – | – | – | – | –
Cc1cc(Cc2cc(C)c(NC(=O)C(=O)C3C(=O)NC(=S)NC3=O)c(C(C)C)c2)cc(C(C)C)c1NC(=O)C(=O)C1C(=O)NC(=S)NC1=O | > 100 µM (inactive) | > 100 µM (inactive) | > 100 µM | > 100 µM (inactive) | > 100 µM (inactive) | > 100 µM (inactive) | > 100 µM (inactive) | > 100 µM (inactive) | > 100 µM (inactive) | > 100 µM (inactive) | > 100 µM (inactive) | > 100 µM (inactive) | > 100 µM (inactive) | > 100 µM (inactive) | > 100 µM (inactive) | – | – | – | – | –
Cc1cccc(-c2cc(=O)c3cc(C)c(C)c(C(=O)O)c3o2)c1 | > 100 µM (inactive) | > 100 µM (inactive) | > 100 µM | > 100 µM (inactive) | > 100 µM (inactive) | – | > 100 µM (inactive) | > 100 µM (inactive) | > 100 µM (inactive) | > 100 µM (inactive) | > 100 µM (inactive) | > 100 µM (inactive) | > 100 µM (inactive) | > 100 µM (inactive) | > 100 µM (inactive) | – | – | – | – | –
COC(=O)C1=C(C(=O)OC)SC(=C2SCSC3=C2SC(C(=O)OC)=C(C(=O)OC)C32SC3=C(CCCC3)S2)S1 | > 100 µM (inactive) | – | > 100 µM | > 100 µM (inactive) | > 100 µM (inactive) | 19.4 µM (inactive) | 62.2 µM (inactive) | > 100 µM (inactive) | > 100 µM (inactive) | > 100 µM (inactive) | > 100 µM (inactive) | > 100 µM (inactive) | > 100 µM (inactive) | > 100 µM (inactive) | > 100 µM (inactive) | > 100 µM (inactive) | > 100 µM (inactive) | > 100 µM (inactive) | > 100 µM (inactive) | > 100 µM (inactive)
C=CCN1C(=O)/C(=C/c2ccc(C)cc2)N=C1SC/C=C/C | 51.6 µM (inactive) | – | 33.4 µM | 43.6 µM (inactive) | 19.6 µM (inactive) | 11.5 µM (inactive) | 40.2 µM (inactive) | 32.7 µM (inactive) | 25.9 µM (inactive) | 15.8 µM (inactive) | 29 µM (inactive) | 45.6 µM (inactive) | 40.3 µM (inactive) | 29.1 µM (inactive) | 50.6 µM (inactive) | 47.3 µM (inactive) | 21.8 µM (inactive) | 34.4 µM (inactive) | 30.4 µM (inactive) | 16.3 µM (inactive)
Cc1cc(S(=O)(=O)Nc2nc(Nc3ccc4ccccc4c3)n[nH]2)c(S)cc1Cl | 52.8 µM (inactive) | – | 42.3 µM | 73.8 µM (inactive) | 45.6 µM (inactive) | 75.2 µM (inactive) | 84.9 µM (inactive) | 34.3 µM (inactive) | > 100 µM (inactive) | > 100 µM (inactive) | 30.3 µM (inactive) | 46.8 µM (inactive) | 34.8 µM (inactive) | > 100 µM (inactive) | > 100 µM (inactive) | > 100 µM (inactive) | 22.2 µM (inactive) | 24.9 µM (inactive) | 75.9 µM (inactive) | 63.7 µM (inactive)
Cc1ccc(S(=O)(=O)Nc2cccc(C)c2C)cc1 | 82.4 µM (inactive) | > 100 µM (inactive) | 41.1 µM | 57.7 µM (inactive) | 62.5 µM (inactive) | 19 µM (inactive) | – | 30.8 µM (inactive) | 36.6 µM (inactive) | 32.2 µM (inactive) | – | 37.9 µM (inactive) | 46.6 µM (inactive) | 74.1 µM (inactive) | 30.4 µM (inactive) | – | – | – | – | –
Cc1noc2c1C(=O)CCC2 | – | > 100 µM (inactive) | – | > 100 µM (inactive) | > 100 µM (inactive) | > 100 µM (inactive) | > 100 µM (inactive) | > 100 µM (inactive) | > 100 µM (inactive) | > 100 µM (inactive) | > 100 µM (inactive) | > 100 µM (inactive) | – | > 100 µM (inactive) | > 100 µM (inactive) | – | – | – | – | –
N#CN1CC[C@@H]2CC3(CCC2C1)OCCO3 (some centres undefined) | > 100 µM (inactive) | > 100 µM (inactive) | > 100 µM | > 100 µM (inactive) | – | > 100 µM (inactive) | > 100 µM (inactive) | > 100 µM (inactive) | > 100 µM (inactive) | > 100 µM (inactive) | < 0.01 µM (active) | > 100 µM (inactive) | > 100 µM (inactive) | > 100 µM (inactive) | – | – | – | – | – | –
O=[N+]([O-])c1c(Br)cc(Br)c2c1Nc1c(ccc(Cl)c1Cl)S2 | 14.9 µM (inactive) | – | 16.9 µM | 17.9 µM (inactive) | 2.34 µM (inactive) | 19.6 µM (inactive) | 16.8 µM (inactive) | 8.49 µM (inactive) | 3.45 µM (inactive) | 2.85 µM (inactive) | 6.53 µM (inactive) | 11.4 µM (inactive) | 17.8 µM (inactive) | 11.7 µM (inactive) | 16.6 µM (inactive) | 29.5 µM (inactive) | 25.1 µM (inactive) | 15.5 µM (inactive) | 2.88 µM (inactive) | 1.61 µM (inactive)
C[N+]12c3ccccc3O[B-]1(c1ccccc1)Oc1ccccc12 (centres undefined) | 25.4 µM (inactive) | 42.9 µM (inactive) | – | 77.4 µM (inactive) | 16.1 µM (inactive) | 25.4 µM (inactive) | 14.8 µM (inactive) | 27.1 µM (inactive) | 28.6 µM (inactive) | 14.5 µM (inactive) | 15.3 µM (inactive) | 15 µM (inactive) | – | 73.5 µM (inactive) | 35.1 µM (inactive) | – | – | – | – | –
CCC(C)C(NC(=O)CNC(=O)C(Cc1ccccc1)NC(=O)C1CCCN1C(=O)c1ccc(-c2ccc(Cl)cc2Cl)o1)C(=O)OC (centres undefined) (X33-PFGI-OMe; configuration not given here) | 19.6 µM (inactive) | – | 43.1 µM | 74.8 µM (inactive) | 33.3 µM (inactive) | 19.4 µM (inactive) | 33.8 µM (inactive) | 16.8 µM (inactive) | 22 µM (inactive) | 3.47 µM (inactive) | 29.8 µM (inactive) | 46.8 µM (inactive) | 15.7 µM (inactive) | 15 µM (inactive) | 27.3 µM (inactive) | 36.7 µM (inactive) | 50.2 µM (inactive) | 38.9 µM (inactive) | 92.5 µM (inactive) | 25.3 µM (inactive)
